# Measured values taken from paper PMC5025041 (Journal of chromatography. A, 2015).
# Like-named read-outs stand apart in the source and are kept apart here.
# Legend:
# [1] = tested on: P-glycoprotein (Pgp); conditions: not told; cited from earlier work
# [2] = tested on: Pgp; conditions: in vitro models; cited from earlier work
# [3] = tested on: CYP3A4; conditions: cited from earlier work
# [4] = subject 8 dosed with O-DVX, with indinavir therapy, 1 hr and 4 hrs
# [5] = human, in vivo
# [6] = human, in vivo; remark: listed apart in the source
compound,measurement,setting,value
"COc1ccc(C(CN(C)C)C2(O)CCCCC2)cc1 (centres unmarked) [VX, venlafaxine]",substrate of the drug transporter P-glycoprotein (Pgp),[1],substrates
CC(C)(C)NC(=O)[C@@H]1CN(Cc2cccnc2)CCN1C[C@@H](O)C[C@@H](Cc1ccccc1)C(=O)N[C@H]1c2ccccc2C[C@H]1O [indinavir],inhibition of Pgp,[2],potent inhibitor
CC(=O)N1CCN(c2ccc(OCC3COC(Cn4ccnc4)(c4ccc(Cl)cc4Cl)O3)cc2)CC1 (centres unmarked) [ketoconazole],reduction of N-desmethyl VX formation,[3],42%
"CN(C)CC(c1ccc(O)cc1)C1(O)CCCCC1 (centres unmarked) [O-DVX, O-desmethylvenlafaxine]",substrate of the drug transporter P-glycoprotein (Pgp),[1],substrates
same,S/R ratio of peak height in plasma,[4],remains less than one
same,peak height ratio S- to R-enantiomer in plasma,[5],0.50-15.2
same,S/R ratio of peak height in plasma,[6]; 1 h,0.83
same,S/R ratio of peak height in plasma,[6]; 4 h,0.98
